{
  "source": "patent US8563503B2",
  "about": "“Antibiotic, its nucleotide sequence, methods of construction and uses thereof” (Protein Design Lab. Ltd., priority 2011, dated 2013)",
  "key": {"Enterococcus": {"system": "Enterococcus", "assay": "MIC by Agar Doubling Dilution Method, clinical isolates", "type": "cell-based, Enterococcus faecalis", "conditions": "Enterococcus", "experimental": "(§1) (3) Culture Solution • MH Broth Culture Solution: 25 g was added into […] distilled water, heat to dissolve, subpackaged, autoclaved at 116° C. for 20 minutes, and MH Solid Culture Medium, 36 g was added into 1000 ml distilled water, autoclaved at 116° C. for 20 minutes, used for drug sensitive test of Gram-positive and negative aerobic bacteria. • Blood culture solution for Enterococcus faecalis, which was prepared by adding defibration rabbit blood into the MH culture solution by 5-10% and cultured at 37° C. in 5% CO2 for 24 hours. 2. Experimental Methods (1) The Measurement of Minimum Inhibitory Concentration (MIC) • The Minimum Inhibitory Concentration (MIC) of PMC-SA1 was measured by Agar Doubling Dilution Method. The bacterium was inoculated on the surface of agar plate containing different concentration of drugs by multipoint inoculate instrument (Deneley A400). The bacterial content per point was 10^5 CFU/ml. After incubated at 37° C. for 18-24 hours, the result can be observed. The least concentration of drugs in plate culture solution without bacterium growing was Minimum Inhibitory Concentration (MIC) of the drug to the said bacteria. 3. Results"}, "[1]": {"system": "Staphylococcus aureus ATCC 29213", "assay": "Protection test in vivo (intravenous injection) of infected mice", "set-up": "species or system Kungming mice", "conditions": "Staphylococcus aureus, ATCC29213", "outline": "(§2)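 Mice got a lethal intraperitoneal bacterial challenge, then one intravenous dose of drug in sterile water at 10, 5 or 2.5 mg/kg. Survival was checked every 24 h for 7–14 days, with death counted as the positive result.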"}, "E. coli 02-1-65 [2]": {"system": "E. coli 02-1-65", "assay": "Protection test in vivo (intravenous injection) of infected mice", "set-up": "species or system Kungming mice", "conditions": "Escherichia coli, 02165", "outline": "as §2"}, "Enterococcus ATCC 700802 [3]": {"system": "Enterococcus ATCC 700802", "assay": "Protection test in vivo (intravenous injection) of infected mice", "set-up": "species or system Kungming mice", "conditions": "Enterococcus, ATCC700802", "outline": "as §2"}, "[4]": {"system": "Staphylococcus aureus MRSA BAA-42", "assay": "Protection test in vivo (intravenous injection) of infected mice", "set-up": "species or system Kungming mice", "conditions": "Staphylococcus aureus", "outline": "as §2"}, "[5]": {"system": "Staphylococcus aureus ATCC 29213", "assay": "MIC against the infecting strain (Table 2)", "type": "cell-based", "conditions": "ATCC29213", "outline": "(§3)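 MH agar, twofold drug dilutions; multipoint inoculation, 10^5 CFU/ml/spot; 37° C, 18-24 h; E. faecalis in MH + 5-10% defibrinated rabbit blood, 5% CO2. Endpoint: no visible growth.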"}, "E. coli 02-1-65 [6]": {"system": "E. coli 02-1-65", "assay": "MIC against the infecting strain (Table 2)", "type": "cell-based", "conditions": "Escherichia coli, 02165", "outline": "as §3"}, "[7]": {"system": "Staphylococcus aureus MRSA BAA-42", "assay": "MIC against the infecting strain (Table 2)", "type": "cell-based", "conditions": "Staphylococcus aureus", "outline": "as §3"}, "Enterococcus ATCC 700802 [8]": {"system": "Enterococcus ATCC 700802", "assay": "MIC against the infecting strain (Table 2)", "type": "cell-based, Enterococcus faecalis", "conditions": "ATCC700802", "experimental": "as §1"}, "[9]": {"system": "ATCC 25923 penicillin-sensitive Staphylococcus aureus", "assay": "Bacteria growth curve (A595 nm cloudiness), penicillin-sensitive Staphylococcus aureus", "type": "cell-based", "conditions": "drug 100 ng/ml, 37° C., A595 nm per hour", "experimental": "The bacterium was United States Reference Culture ATCC 25923 penicillin-sensitive Staphylococcus aureus. 2 microliter of bacteria solution (10^5 CFU/ml) was added into 10 ml culture solution containing 1% tryptone, 1% NaCl, 0.5% yeast extract, 0.5% glucose and 0.1% K2HPO4, totally prepared six groups. The first group as control was added 0.3 M NaCl+50 mM boric acid buffer fluid (i.e. blank preservative fluid for novel antibiotic, wild-type colicin Ia and protein produced by BL-21 engineering bacteria without plasmid, by the same volumes of antibiosis polypeptide liquid in the experimental group, the second group was added penicillin G sodium by 100 ng/ml, the third group was added wild-type colicin Ia by 100 ng/ml, the fourth group was added protein produced by BL-21 engineering bacteria without plasmid by 100 ng/ml, the fifth group was added recombinant protein that C-terminus of colicin Ia is fused other eight peptides by 100 ng/ml, and the sixth group was added the novel antibiotic PMC-SA1 by 100 ng/ml.\nThe solutions of the six groups were respectively put into 100 ml conical flask, 200 rpm, grew at 37° C. 100 μl was sampled per hour, and added onto 96 hole ELISA Plate and measured bacterium growth cloudiness by spectrophotometer (A595 nm) color comparison. The bacteria-growth curve was drawn up to compare the bacteriostasis efficacy of novel antibiosis."}, "E. coli": {"system": "E. coli", "assay": "MIC by Agar Doubling Dilution Method, clinical isolates", "type": "cell-based", "conditions": "Escherichia coli, E. coli clinical strains", "experimental": "as §1"}, "Baumanii": {"system": "Baumanii", "assay": "MIC by Agar Doubling Dilution Method, clinical isolates", "type": "cell-based", "experimental": "as §1"}, "[10]": {"system": "Staphylococcus aureus (MSSA)", "assay": "MIC by Agar Doubling Dilution Method, clinical isolates", "type": "cell-based", "conditions": "Staphylococcus aureus, MSSA", "experimental": "as §1"}, "[11]": {"system": "Staphylococcus epidermidis (MSSE strain)", "assay": "MIC by Agar Doubling Dilution Method, clinical isolates", "type": "cell-based", "experimental": "as §1"}, "[12]": {"system": "Staphylococcus aureus (MRSA)", "assay": "MIC by Agar Doubling Dilution Method, clinical isolates", "type": "cell-based", "conditions": "Staphylococcus aureus, MRSA", "experimental": "as §1"}, "[13]": {"system": "Staphylococcus epidermidis (MRSE)", "assay": "MIC by Agar Doubling Dilution Method, clinical isolates", "type": "cell-based", "conditions": "Staphylococcus epidermidis, MRSE", "experimental": "as §1"}},
  "data": [
    {"smiles": "CC1(C)S[C@@H]2[C@H](NC(=O)Cc3ccccc3)C(=O)N2[C@H]1C(=O)O", "note": "[Penicillin, Benzylpenicillin Sodium]", "values": [
      {"measurement": "MIC50", "setting": "Enterococcus", "result": 32, "unit": "µg/mL"},
      {"measurement": "MIC90", "setting": "Enterococcus", "result": 64, "unit": "µg/mL"},
      {"measurement": "ED50", "setting": "[1]", "result": 10.8, "unit": "mg/kg"},
      {"measurement": "ED50", "setting": "E. coli 02-1-65 [2]", "result": "> 34.5", "unit": "mg/kg"},
      {"measurement": "ED50", "setting": "Enterococcus ATCC 700802 [3]", "result": 4.16, "unit": "mg/kg"},
      {"measurement": "ED50", "setting": "[4]", "result": 14.7, "unit": "mg/kg"},
      {"measurement": "MIC", "setting": "[5]", "result": 16, "unit": "µg/mL"},
      {"measurement": "MIC", "setting": "E. coli 02-1-65 [6]", "result": "> 128", "unit": "µg/mL"},
      {"measurement": "MIC", "setting": "[7]", "result": 8, "unit": "µg/mL"},
      {"measurement": "MIC", "setting": "Enterococcus ATCC 700802 [8]", "result": 4, "unit": "µg/mL"},
      {"measurement": "growth of penicillin-sensitive Staphylococcus aureus (bacteria-growth curve)", "setting": "[9]", "result": "restrained"},
      {"measurement": "MIC50", "setting": "E. coli; read-out: MIC50", "result": "> 128", "unit": "µg/mL"},
      {"measurement": "MIC90", "setting": "E. coli; read-out: MIC90", "result": "> 128", "unit": "µg/mL"},
      {"measurement": "MIC", "setting": "E. coli; read-out: Scope of MIC", "result": "> 128", "unit": "µg/mL"},
      {"measurement": "MIC50", "setting": "Baumanii", "result": "> 128", "unit": "µg/mL"},
      {"measurement": "MIC90", "setting": "Baumanii", "result": "> 128", "unit": "µg/mL"},
      {"measurement": "MIC", "setting": "Baumanii; read-out: Scope of MIC", "result": "> 128", "unit": "µg/mL"},
      {"measurement": "MIC50", "setting": "[10]", "result": 8, "unit": "µg/mL"},
      {"measurement": "MIC90", "setting": "[10]", "result": 64, "unit": "µg/mL"},
      {"measurement": "Scope of MIC", "setting": "[11]; MSSE clinical strains", "result": "0.125 to 128", "unit": "µg/mL"},
      {"measurement": "MIC50", "setting": "[11]; Staphylococcus epidermidis", "result": 4, "unit": "µg/mL"},
      {"measurement": "MIC90", "setting": "[11]; Staphylococcus epidermidis", "result": 32, "unit": "µg/mL"},
      {"measurement": "MIC50", "setting": "[12]", "result": 128, "unit": "µg/mL"},
      {"measurement": "MIC90", "setting": "[12]", "result": "> 128", "unit": "µg/mL"},
      {"measurement": "MIC", "setting": "[12]; read-out: Scope of MIC", "result": "1 to 128", "unit": "µg/mL"},
      {"measurement": "MIC50", "setting": "[13]", "result": "> 128", "unit": "µg/mL"},
      {"measurement": "MIC90", "setting": "[13]", "result": "> 128", "unit": "µg/mL"}
    ]}
  ]
}
